Experimental data published in the NIST ThermoML archive (doi:10.1016/j.fluid.2016.01.023).
± gives the expanded uncertainty stated by the source.

Assay: mn = molality of the nth substance listed, in mol/kg
Conditions: 303.15 K, 101 kPa, Liquid, Vibrating tube method

Work on `O=C([O-])CCC(=O)C(=O)[O-].[Na+].[Na+]` [disodium 2-oxo-glutarate] + O yielded a mass density (m1 = 0.01) of 996.13 ± 0.84 kg/m3, a mass density (m1 = 0.101) of 1007.45 ± 0.85 kg/m3 and a mass density (m1 = 0.5) of 1042.49 ± 0.85 kg/m3. The mass density (m1 = 1.001) was 1093.14 ± 0.85 kg/m3 and the mass density (m1 = 1.501) was 1147.45 ± 0.86 kg/m3.
`N[C@@H](CCC(=O)[O-])C(=O)O.[Na+]` [sodium (S)-2-amino-4-carboxybutanoate] + O showed a mass density (m1 = 0.01) of 996.19 ± 0.84 kg/m3, a mass density (m1 = 0.043) of 999.15 ± 0.84 kg/m3 and a mass density (m1 = 0.1) of 1004.02 ± 0.84 kg/m3. The mass density (m1 = 0.417) was 1030.44 ± 0.84 kg/m3, the mass density (m1 = 0.896) was 1066.63 ± 0.85 kg/m3 and the mass density (m1 = 1.454) was 1104.02 ± 0.85 kg/m3.
`CC(=O)C(=O)[O-].[Na+]` [sodium pyruvate] + O showed a mass density (m1 = 0.01) of 995.66 ± 0.84 kg/m3, a mass density (m1 = 0.053) of 997.57 ± 0.84 kg/m3 and a mass density (m1 = 0.101) of 1000.51 ± 0.84 kg/m3. The mass density (m1 = 0.5) was 1018.19 ± 0.84 kg/m3, the mass density (m1 = 1.002) was 1041.67 ± 0.84 kg/m3 and the mass density (m1 = 1.502) was 1065.87 ± 0.84 kg/m3.
